# In US10363239B2, “Method for inhibiting growth of cancer cells” (Pain Therapeutics, Inc., priority 2013, dated 2019):
# Legend:
# Assay type in all cases: cell-based, human
# [1] = system: GTP-bound K-ras in melanoma cells; assay: Active K-ras (GTP-bound K-ras) Raf1 RBD pull-down assay; conditions: 0.1, 0.5, 1 and 5 nM; 4-day treatment
# Method: FIGS. 31A and 31B illustrate the effects of illustrative Compound C0105 on levels of active K-ras (GTP-bound K-ras), assessed using the agarose bead-bound Raf1 RBD pull-down assay in melanoma, two different pancreatic cancerous cell lines (MiaPaCa2 and BxPc3) and a glioblastoma cell line (U87). The cells were treated (contacted) with zero (vehicle), 0.1, 0.5, 1 and 5 nM Compound C0105 as previously discussed. The thus obtained GTP-bound K-ras was subjected to Western blotting using anti-ras antibodies for identification, the blot densities determined and statistically analyzed as discussed previously.
# In a separate series of studies, the level of active K-RAS (GTP-bound K-RAS) was determined by precipitation using Raf RBD-conjugated agarose beads from 100 μg of lysates of cancer cells (prepared as described above) following 4-day treatment with varying concentrations of Compound C0105. To ascertain even loading, actin in the cell lysates was immunoprecipitated with goat anti-actin. The precipitates were collected by centrifugation, washed and the active K-RAS and actin eluted by boiling for 5 min in 1×SDS-PAGE. The levels of active K-RAS and actin in 50 μg of cell lysates were size-fractionated on 12% SDS-PAGE, electrophorectically transferred to nitrocellulose membranes and determined by Western blotting with specific monoclonal antibodies against K-RAS and actin.
# [2] = system: glioblastoma (U-87MG) cells; assay: Cell proliferation by cell-cycling markers Ki67 and PCNA (Western blots); conditions: 0.1-5 nM; 4 days
# Method: The effect of contact with Compound C0105 on cell proliferation was determined by the levels of cell-cycling markers: Ki67 and PCNA using Western blots in glioblastoma (U-87MG) cells. Cells contacted with vehicle and 0.1-5 nM Compound C0105 for 4 days were collected, washed and solubilized. The resultant cell lysates were size-fractionated on SDS-PAGE and Western blotting to determine the levels of Ki67, PCNA and actin (loading control). The protein bands were quantified using densitometric scanning. […] N=4. *p<0.01 compared to vehicle (open bars).
# To study the effect of Compound C0105 on PI3K activity, the cancer and primary normal cells were cultured to approximately 60-70% confluency, serum deprived for 4 hours, briefly washed with PBS and treated with vehicle or 0.1, 0.5, 1 or 5 nM Compound C0105 for 24 hours with in 0.1% FBS-containing culture medium. The cells were then washed with PBS, scraped off and collected by centrifugation. The cell pellets were sonicated in ice-cold immunoprecipitation buffer and protein concentrations measured by the Bradford method. […]
# Immunoreactivity was visualized by reaction in ECL Plus chemiluminescent reagent for exactly 5 minutes, followed by immediate exposure of the blot to X-ray film (Z & Z Medical). Bands at the relevant molecular masses of Ki67 and PCNA were quantified by densitometric scan. […]
# [3] = system: small-cell lung carcinoma cells; assay: as above; conditions: 0.1-5 nM; 4 days
# [4] = system: pS2152FLNA, FLNA-associated PTEN and PP2A in glioblastoma cells; assay: pS2152FLNA and FLNA-associated PTEN and PP2A in anti-FLNA immunoprecipitate (Western blotting); conditions: 0.1-5 nM; 4 days
# Method: The effect of Compound C0105 on the levels of pS^2152FLNA and FLNA-associated phosphatases, PTEN and PP2A subclasses was determined in glioblastoma cells. Cells were treated with vehicle and 0.1-5 nM Compound C0105 for 4 days. Cells were washed and solubilized, and the resultant cell lysate was immunoprecipitated with anti-FLNA. The levels of pS^2152FLNA and FLNA-associated phosphatases, PTEN and PP2A subclasses in the anti-FLNA immunoprecipitate were determined by Western blotting. The density of protein bands was quantified by densitometric scan. […] N=4. **p<0.05, *p<0.01 compared to vehicle (open bars). […]
# (§1) The cell lysates were diluted 5-fold with immunoprecipitation buffer and immunoprecipitated with anti-FLNA, -Akt, -mTOR and -ERK2 as described previously [Talbot et al., J Clin Inv 122(4):1-23 (2012); Wang et al., J Neurosci 32(29):9773-9784 (2012)]. The levels of FLNA linkages, activated phosphorylated Akt (pS^473 and pT^308), phosphorylated mTOR (pS^2448) and phosphorylated ERK2 (pY/pT) were determined in anti-FLNA, -Akt, -mTOR and -ERK2 immunoprecipitates by Western blotting with appropriate antibodies directed against PTEN, PP2A, K-RAS, ras-GAP (FLNA linkages), pS^473Akt, pT^308Akt, pS^2448mTOR and pY/pT ERK2 (activation of Akt, mTOR and ERK2).
# [5] = system: primary neuroendocrine tumor cells; assay: Cell proliferation by Ki67 and PCNA (Western blotting); conditions: 1 nM; 4 days
# [6] = system: FLNA-bound K-ras and ras-GAP in lung fibroblasts; assay: FLNA-bound K-ras and ras-GAP (immunoprecipitation, Western blotting)
# Method: Thus, melanoma, two different pancreatic cancerous cell lines (MiaPaCa2 and BxPc3) and a glioblastoma cell line (U87) were treated with zero (vehicle), 0.1, 0.5, 1 and 5 nM Compound C0105 as previously discussed, and FLNA-bound K-ras and ras-GAP were immunoprecipitated, separated by Western blotting and the blot densities determined as discussed previously.
# To study the effect of Compound C0105 on pS^2152FLNA levels, FLNA linkages to key regulators including protein phosphatases as well as activated Akt (pS^473-, pT^308-Akt), mTOR (pS^2442mTOR) and ERK (pY/pT-ERK) levels, the cancer and normal cells were cultured to approximately 90% confluency and treated with vehicle or varying concentrations of Compound C0105. […]
# as §1, with “ERK2). […]” for “ERK2).”
smiles,measurement,setting,value
CN1CCC2(CC1)NCC(=O)N2Cc1ccccc1 [Compound C0105],GTP-bound K-ras (active K-ras) level,[1],reduced GTP-bound K-ras
same,Cell proliferation (Ki67 and PCNA levels),[2],reduces cell proliferation
same,Cell proliferation (Ki67 and PCNA levels),[3],reduces cell proliferation
same,FLNA-associated PTEN and PP2A levels,[4],increases FLNA-associated PTEN and PP2A levels
same,pS2152FLNA level,[4],reduces pS^2152FLNA
same,Cell proliferation (Ki67 and PCNA levels),[5],Inhibits Proliferation
same,FLNA-associated K-ras and ras-GAP,[6],had no effect on fibroblasts
